# Results published in patent US4687775A, “2-[(Imidazo[1,2-a]pyridinylmethyl)sulfinyl]-1H-benzimidazoles” (G. D. Searle & Co., priority 1986, dated 1987).
# Target: T1, (H^+ +K^+)-ATPase (Canis lupus familiaris, UniProt P50996)
# T1 construct: (H^+ +K^+)-ATPase obtained from canine gastric mucosa; from tissue; host or cells: glandular gastric mucosa of mongrel dogs (antral and cardiac regions removed), microsomes from the 15%-30% sucrose interface, lyophilized
# Assay: Inhibition of (H^+ +K^+)-ATPase from Canine Gastric Mucosa
# Type: biochemical, canine (mongrel dogs)
# Settings: canine gastric mucosa microsomes; pH 6.0; 30 min preincubation with compound at 37°; K^+-stimulated minus basal activity
# Procedure: Inhibition of (H^+ +K^+)-ATPase from Canine Gastric Mucosa
# Mongrel dogs weighing 15 to 25 kilograms were fasted for twenty-four hours, with water provided ad libitum. The animals were anesthetized with pentobarbital and the stomachs were removed. Subsequent tissue manipulations and subcellular fractionations were performed at 0° to 4° C. After the stomachs were cut open and rinsed with tap water, the antral and cardiac regions were removed and the remaining tissue was rinsed three times in saline. The glandular mucosa was removed mechanically, chopped finely in a medium containing 10 mM Tris hydrochloride (pH 7.4) and 250 mM sucrose, and homogenized. The homogenate was centrifuged at 20,000×g for twenty minutes and the pellet discarded. The supernatant was then centrifuged at 150,000×g for ninety minutes and the supernatant discarded. The pellet was resuspended in the Tris-HCl/sucrose medium by homogenization. Part (2 ml) of the resultant microsomal suspension was layered onto a step gradient consisting of 9 ml of 15% sucrose above 12 ml of 30% sucrose, each sucrose solution being buffered with 10 mM Tris hydrochloride (pH 7.4) containing 0.01% sodium azide. The microsomes retained at the 15%-30% sucrose interface, after centrifugation at 250,000×g for sixty minutes, were used as the source of (H^+ +K^+)-ATPase. Microsomal preparations were lyophilized, a process that assured potassium ion permiability, and stored at -10° until used.
# (H^+ K^+)-ATPase activity for each test compound was determined, in duplicate, by measuring the release of inorganic phosphate, which was assayed according to the method of J. ChandraRajan and L. Klein. Anal. Biochem., 72, 407-412 (1976). The (H^+ +K^+)-ATPase assay medium consisted of 20 mM Mes-Tris (pH 6.0), 5 mM magnesium chloride, 25 mM sucrose, and 4 mM Tris-ATP with or without 20 mM potassium chloride in a total volume of 2 ml. Microsomal suspensions (20 to 60 mcl, containing about 25 mcg protein) were added to the assay medium, without Tris-ATP, and then preincubated with a test compound for thirty minutes at 37°. The assay was initiated by adding Tris-ATP and the mixture was incubated another thirty minutes at 37°. A 200-mcl aliquot of the assay mixture was then added to 1.4 ml of a solution consisting of 0.1M sodium acetate (pH 4.0) and 10 % sodium dodecylsulfate, followed by the addition of 200 mcl each of 1% ammonium molybdate and 1% ascorbic acid. At least fifteen minutes later, the optical absorbance at 870 nm (which was proportional to inorganic phosphate concentration up to 100 nmoles per tube, as determined by a standard curve) was obtained. Enzyme activity was linear with incubation time.
# (H^+ +K^+)-ATPase activity is represented by the difference between the measured activities in the presence of potassium ion (K^+ -stimulated) and in the absence of potassium ion (basal). […] If the IC50 for a test compound could not be determined for the concentration range tested, percent inhibition of (H^+ +K^+)-ATPase was obtained for the compound at 0.1 mM.
# T1 sequence (P50996 2-1034 limits assumed): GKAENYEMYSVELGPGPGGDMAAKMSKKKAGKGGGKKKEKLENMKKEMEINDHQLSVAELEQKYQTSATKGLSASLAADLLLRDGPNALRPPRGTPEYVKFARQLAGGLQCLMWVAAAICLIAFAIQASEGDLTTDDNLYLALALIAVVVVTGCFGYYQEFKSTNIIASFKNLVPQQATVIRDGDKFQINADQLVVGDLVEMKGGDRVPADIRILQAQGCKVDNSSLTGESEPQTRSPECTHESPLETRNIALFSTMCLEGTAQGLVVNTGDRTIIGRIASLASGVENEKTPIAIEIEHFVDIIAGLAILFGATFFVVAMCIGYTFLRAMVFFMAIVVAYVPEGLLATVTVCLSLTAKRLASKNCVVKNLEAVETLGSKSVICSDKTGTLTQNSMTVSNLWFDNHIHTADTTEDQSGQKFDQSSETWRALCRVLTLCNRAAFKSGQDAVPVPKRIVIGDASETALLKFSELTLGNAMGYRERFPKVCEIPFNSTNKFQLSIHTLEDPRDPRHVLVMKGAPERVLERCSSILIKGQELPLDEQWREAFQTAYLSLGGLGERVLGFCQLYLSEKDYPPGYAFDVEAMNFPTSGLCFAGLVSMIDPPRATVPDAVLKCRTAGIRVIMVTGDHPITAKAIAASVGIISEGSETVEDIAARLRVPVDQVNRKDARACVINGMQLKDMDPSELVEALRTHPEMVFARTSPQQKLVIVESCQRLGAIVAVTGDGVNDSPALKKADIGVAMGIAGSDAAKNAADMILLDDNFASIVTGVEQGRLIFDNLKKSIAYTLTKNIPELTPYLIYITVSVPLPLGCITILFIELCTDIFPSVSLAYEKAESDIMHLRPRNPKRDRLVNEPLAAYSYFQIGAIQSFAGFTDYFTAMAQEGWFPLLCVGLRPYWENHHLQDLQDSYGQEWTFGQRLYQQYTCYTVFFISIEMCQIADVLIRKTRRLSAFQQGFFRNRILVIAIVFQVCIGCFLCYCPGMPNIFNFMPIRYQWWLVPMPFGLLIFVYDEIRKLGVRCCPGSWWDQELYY
# T1 sequence (P33704 whole entry partner): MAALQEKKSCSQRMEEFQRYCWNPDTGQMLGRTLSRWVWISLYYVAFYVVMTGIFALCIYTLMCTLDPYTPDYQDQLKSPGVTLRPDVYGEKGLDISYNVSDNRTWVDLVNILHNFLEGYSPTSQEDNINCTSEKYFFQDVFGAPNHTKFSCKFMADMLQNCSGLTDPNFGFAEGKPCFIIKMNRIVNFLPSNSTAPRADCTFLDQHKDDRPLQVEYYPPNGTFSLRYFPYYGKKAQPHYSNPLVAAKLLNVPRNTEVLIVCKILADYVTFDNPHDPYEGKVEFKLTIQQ
row,IC50,SMILES
1,15.2 µM,"[O-][S+](Cc1cccn2c(-c3cccc(C(F)(F)F)c3)cnc12)c1nc2cc(Cl)ccc2[nH]1 (centres unmarked) [Example 42, 5-chloro-2-[[[3-[3-(trifluoromethyl)phenyl]imidazo[1,2-a]pyridin-8-yl]methyl]sulfinyl]-1H-benzimidazole]"
2,69 µM,"COc1cc2nc([S+]([O-])Cc3cccn4ccnc34)[nH]c2cc1OC (centres unmarked) [Example 17, 2-[(imidazo[1,2-a]pyridin-8-ylmethyl)sulfinyl]-5,6-dimethoxy-1H-benzimidazole]"
3,3.2 µM,"Cc1ccc(-c2cnc3c(C[S+]([O-])c4nc5ccccc5[nH]4)cccn23)cc1 (centres unmarked) [Example 54, 2-[[[3-(4-methylphenyl)imidazo[1,2-a]pyridin-8-yl]methyl]sulfinyl]-1H-benzimidazole]"
4,6.2 µM,"Cc1cccc2[nH]c([S+]([O-])Cc3cccn4ccnc34)nc12 (centres unmarked) [Example 11, 2-[(imidazo[1,2-a]pyridin-8-ylmethyl)sulfinyl]-4-methyl-1H-benzimidazole]"
5,4 µM,"Cc1cnc2c(C[S+]([O-])c3nc4ccccc4[nH]3)cccn12 (centres unmarked) [Example 25, 2-[[(3-methylimidazo[1,2-a]pyridin-8-yl)methyl]sulfinyl]-1H-benzimidazole hemihydrate1/2CH2 Cl2]"
6,7.8 µM,"COC(=O)c1ccc(-c2cnc3c(C[S+]([O-])c4nc5ccccc5[nH]4)cccn23)cc1 (centres unmarked) [Example 49, methyl 4-[8-[(1H-benzimidazol-2-ylsulfinyl)methyl]imidazo[1,2-a]pyridin-3-yl]benzoate hydrate]"
7,6.9 µM,"[O-][S+](Cc1cccn2c(-c3cccc(C(F)(F)F)c3)cnc12)c1nc2ccccc2[nH]1 (centres unmarked) [Example 36, 2-[[[3-[3-(trifluoromethyl)phenyl]imidazo[1,2-a]pyridin-8-yl]methyl]sulfinyl]-1H-benzimidazole]"

# More lines, now with the values behind:
row,SMILES,IC50
1,"CCOc1ccc2[nH]c([S+]([O-])Cc3cccn4ccnc34)nc2c1 (centres unmarked) [Example 9, 5-ethoxy-2-[(imidazo[1,2-a]pyridin-8-ylmethyl)sulfinyl]-1H-benzimidazole]",9.2 µM
2,"[O-][S+](Cc1cccn2ccnc12)c1nc2ccccc2[nH]1 (centres unmarked) [Example 3, 2-[(imidazo[1,2-a]pyridin-8-ylmethyl)sulfinyl]-1H-benzimidazole 1/8 hydrate]",2.7 µM
3,"[O-][S+](Cc1cccn2c(-c3ccc(C(F)(F)F)cc3)cnc12)c1nc2ccccc2[nH]1 (centres unmarked) [Example 45, 2-[[[3-[4-(trifluoromethyl)phenyl]imidazo[1,2-a]pyridin-8-yl]methyl]sulfinyl]-1H-benzimidazole]",7.4 µM
4,"Cc1ccc2[nH]c([S+]([O-])Cc3cccn4ccnc34)nc2c1 (centres unmarked) [Example 13, 2-[(imidazo[1,2-a]pyridin-8-ylmethyl)sulfinyl]-5-methyl-1H-benzimidazole]",3.1 µM
5,"O=[N+]([O-])c1ccc(-c2cnc3c(C[S+]([O-])c4nc5ccccc5[nH]4)cccn23)cc1 (centres unmarked) [Example 33, 2-[[[3-(4-nitrophenyl)imidazo[1,2-a]pyridin-8-yl]methyl]sulfinyl]-1H-benzimidazole 1/4 hydrate]",17.5 µM
6,"COc1ccc2[nH]c([S+]([O-])Cc3cccn4ccnc34)nc2c1 (centres unmarked) [Example 7, 2-[(imidazo[1,2-a]pyridin-8-ylmethyl)sulfinyl]-5-methoxy-1H-benzimidazole]",8.5 µM
7,"[O-][S+](Cc1cccn2c(-c3ccc(Cl)cc3)cnc12)c1nc2ccccc2[nH]1 (centres unmarked) [Example 52, 2-[[[3-(4-chlorophenyl)imidazo[1,2-a]pyridin-8-yl]methyl]sulfinyl]-1H-benzimidazole]",5.5 µM
8,"Cc1nc2c(C[S+]([O-])c3nc4ccccc4[nH]3)cccn2c1C (centres unmarked) [Example 23, 2-[[(2,3-dimethylimidazo[1,2-a]pyridin-8-yl)methyl]sulfinyl]-1H-benzimidazole]",6.2 µM
9,Cc1cn2cccc(C[S+]([O-])c3nc4ccccc4[nH]3)c2n1 (centres unmarked) [Example 5],6.7 µM
10,"[O-][S+](Cc1cccc2nccn12)c1nc2ccccc2[nH]1 (centres unmarked) [Example 56, 2-[(imidazo[1,2-a]pyridin-5-ylmethyl)sulfinyl]-1H-benzimidazole]",> 100 µM
11,"[O-][S+](Cc1cccn2cc(-c3ccccc3)nc12)c1nc2ccccc2[nH]1 (centres unmarked) [Example 28, 2-[[(2-phenylimidazo[1,2-a]pyridin-8-yl)methyl]sulfinyl]-1H-benzimidazole 1/4 hydrate]",> 100 µM
12,"[O-][S+](Cc1cccn2ccnc12)c1nc2cc(C(F)(F)F)ccc2[nH]1 (centres unmarked) [Example 21, 2-[(imidazo[1,2-a]pyridin-8-ylmethyl)sulfinyl]-5-(trifluoromethyl)-1H-benzimidazole]",3.4 µM
13,"[O-][S+](Cc1cccn2ccnc12)c1nc2cc(Cl)ccc2[nH]1 (centres unmarked) [Example 19, 5-chloro-2-[(imidazo[1,2-a]pyridin-8-ylmethyl)sulfinyl]-1H-benzimidazole]",5 µM
14,"Cc1cc2nc([S+]([O-])Cc3cccn4ccnc34)[nH]c2cc1C (centres unmarked) [Example 15, 2-[(imidazo[1,2-a]pyridin-8-ylmethyl)sulfinyl]-5,6-dimethyl-1H-benzimidazole hydrate]",4.8 µM
15,"[O-][S+](Cc1cccn2c(-c3ccc(C(F)(F)F)cc3)cnc12)c1nc2cc(Cl)ccc2[nH]1 (centres unmarked) [Example 47, 5-chloro-2-[[[3-[4-(trifluoromethyl)phenyl]imidazo[1,2-a]pyridin-8-yl]methyl]sulfinyl]-1H-benzimidazole]",13 µM
16,"Cc1ccc2[nH]c([S+]([O-])Cc3cccn4c(-c5cccc(C(F)(F)F)c5)cnc34)nc2c1 (centres unmarked) [Example 39, 5-methyl-2-[[[3-[3-(trifluoromethyl)phenyl]imidazo[1,2-a]pyridin-8-yl]methyl]sulfinyl]-1H-benzimidazole]",7.2 µM
17,"[O-][S+](Cc1cccn2c(-c3ccccc3)cnc12)c1nc2ccccc2[nH]1 (centres unmarked) [Example 30, 2-[[(3-phenylimidazo[1,2-a]pyridin-8-yl)methyl]sulfinyl]-1H-benzimidazole hemihydrate]",9.1 µM

# Tested on: gastric acid secretion in gastric fistula beagle dogs
# Assay: Inhibition of Gastric Acid Secretion in Gastric Fistula Beagle Dogs
# Type: in vivo
# Settings: 3 mg/kg dose; i.d. (intraduodenal); histamine-stimulated secretion, four-hour period
row,SMILES,Gastric-Fistula Beagle % Inhibition
1,"[O-][S+](Cc1cccn2ccnc12)c1nc2ccccc2[nH]1 (centres unmarked) [Example 3, 2-[(imidazo[1,2-a]pyridin-8-ylmethyl)sulfinyl]-1H-benzimidazole 1/8 hydrate]",57%
2,Cc1cn2cccc(C[S+]([O-])c3nc4ccccc4[nH]3)c2n1 (centres unmarked) [Example 5],16%
